In EP0565317A1, “(2-(2-hydroxy-2 phenylethylamino)ethoxy) phenyl derivatives, processes and intermediates for their preparation, pharmaceutical compositions containing them and their use as Beta-3-adrenoceptor agonists” (ZENECA LIMITED, priority 1992, dated 1993):

Legend:
Rats [1] = assay: Heart rate in rats adapted to a thermoneutral environment; D500 dose and selectivity index (test b); settings: selectivity index = ratio of D500 to ED50 in test (a)
BAT mitochondria = assay: GDP binding in BAT mitochondria of cold-adapted rats as a measure of thermogenic activation (test a); format: in vivo; settings: Rattus norvegicus, 1 h; oral; dose producing 50% of the effect of isoprenaline (1 mgkg-1) on GDP binding; rats sacrificed one hour after dosing
Rats [2] = assay: Metabolic rate by closed-circuit oxygen consumption in fasted rats (test c); format: in vivo; settings: at 1mgkg^-1 p.o.; determined for at least one hour after dosing

| Compound | SI (Rats [1]; route not stated) | ED50 (BAT mitochondria) [mg/kg] | metabolic rate (Rats [2]) | SI (Rats [1]; oral) |
| --- | --- | --- | --- | --- |
| CC(C)NCC(O)c1ccc(O)c(O)c1 (stereo not shown) [isoprenaline, reference compound] | 0.06 |  |  |  |
| COCC(=O)Cc1ccc(OCCNCC(O)c2ccccc2)cc1 (stereo not shown) [Example 1, 1-[4-(2-(2-Hydroxy-2-phenylethylamino)ethoxy)phenyl]-3-methoxypropan-2-one] |  | 0.98 | 4.99 ml O2 min^-1 (Kg^0.75)^-1 | > 50 |
